{
  "source": "patent US8288512B2",
  "about": "“Use of amphiphilic self-assembling proteins for formulating poorly water-soluble effect substances” (BASF SE, priority 2006, dated 2012)",
  "key": {"[1]": {"details": "cited from earlier work"}, "[2]": {"test": "Packing of metazachlor in C16 protein microbeads, active substance distribution (photometric at 215 nm)", "type": "physicochemical", "protocol": "500 μl of a 10 mg/ml C16 protein-comprising potassium phosphate solution (5 mM, pH 8.0) were mixed with 100 μl of a metazachlor solution (50 mg/ml in isopropanol). C16 Protein microbead formation was induced by adding 1 ml of 1 M potassium phosphate buffer (pH 8.0). The mixture was incubated for 1 h at room temperature and then centrifuged for 10 min at 20000×g. The pellet was washed twice with 5 ml of double-distilled H2O and then lyophilized. An identical mixture without C16 protein was carried out as control.\nIn each case, about 20% of the active substance were present in the wash supernatants.\n(§1) Analysis of the Active Substance Distribution (Photometric Determination at λ=215 nm)"}, "proteinase K": {"molecular_target": "proteinase K (Parengyodontium album, UniProt P06873)", "sequence (P06873 106-384)": "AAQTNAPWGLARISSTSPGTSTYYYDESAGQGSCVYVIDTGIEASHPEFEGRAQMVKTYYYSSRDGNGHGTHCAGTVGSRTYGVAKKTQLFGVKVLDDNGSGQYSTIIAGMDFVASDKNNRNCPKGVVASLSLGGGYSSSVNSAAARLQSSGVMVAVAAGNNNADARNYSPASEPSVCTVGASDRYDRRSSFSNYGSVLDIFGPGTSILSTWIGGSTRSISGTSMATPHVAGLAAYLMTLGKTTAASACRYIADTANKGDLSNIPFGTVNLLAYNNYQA", "test": "Release of metazachlor from C16 protein microbeads by proteinase K digestion", "protocol": "The lyophilized metazachlor-comprising C16 protein microbeads were proteolytically digested in 1 ml of 10 mM Tris buffer; 0.1% SDS; 100 μg of proteinase K for 1 h at 37° C. The active substance crystals remaining from the mixture after centrifugation for 10 minutes (20000×g) were dissolved in 500 μl of isopropanol. About 11% of the amount of metazachlor used was detected in the supernatant of the protease digestion. The active substance crystals redissolved in isopropanol constituted about 35% of the amount of metazachlor used.\nas §1"}, "[3]": {"details": "of the amount of metazachlor used"}, "[4]": {"details": "proteinase K, 1 h, 37° C., 5.0 mg metazachlor used"}},
  "note": "Where two headings read alike, the source gives them in different places.",
  "data": [
    {"molecule": "NC(=O)N1c2ccccc2C=Cc2ccccc21", "note": "[Carbamazipine]", "values": [
      {"measurement": "Solubility in water", "setting": "[1]; RT", "value": 945.1, "unit": "µg/mL"}
    ]},
    {"molecule": "Clc1ccccc1C(c1ccccc1)(c1ccccc1)n1ccnc1", "note": "[Clotrimazole]", "values": [
      {"measurement": "Solubility in water", "setting": "[1]; 25° C.", "value": "<10", "unit": "µg/mL"}
    ]},
    {"molecule": "Cc1cccc(C)c1N(Cn1cccn1)C(=O)CCl", "note": "[metazachlor]", "values": [
      {"measurement": "Crystal formation after potassium phosphate precipitation", "setting": "[2]; mixture with C16 protein", "value": "no metazachlor crystals were visible"},
      {"measurement": "Crystal formation after potassium phosphate precipitation", "setting": "[2]; mixture without C16 protein", "value": "large active substance crystals were formed"},
      {"measurement": "Active substance crystals redissolved in isopropanol", "setting": "proteinase K; [3]", "value": "about 35%"},
      {"measurement": "Metazachlor detected in the supernatant of the protease digestion", "setting": "proteinase K; [3]", "value": "About 11%"},
      {"measurement": "Amount of substance, pellet after digestion in isopropanol", "setting": "proteinase K; [4]", "value": 1.74, "unit": "mg"},
      {"measurement": "Amount of substance, supernatant after protease digestion", "setting": "proteinase K; [4]", "value": 0.55, "unit": "mg"}
    ]},
    {"molecule": "C16 protein: synthetic spider silk protein with the polypeptide sequence shown in SEQ ID NO: 1 (protein, Synthetic spider silk C16 protein) MASMTGGQQMGRGSMGSSAAAAAAAASGPGGYGPENQGPSGPGGYGPGGPGSSAAAAAAAASGPGGYGPENQGPSGPGGYGPGGPGSSAAAAAAAASGPGGYGPENQGPSGPGGYGPGGPGSSAAAAAAAASGPGGYGPENQGPSGPGGYGPGGPGSSAAAAAAAASGPGGYGPENQGPSGPGGYGPGGPGSSAAAAAAAASGPGGYGPENQGPSGPGGYGPGGPGSSAAAAAAAASGPGGYGPENQGPSGPGGYGPGGPGSSAAAAAAAASGPGGYGPENQGPSGPGGYGPGGPGSSAAAAAAAASGPGGYGPENQGPSGPGGYGPGGPGSSAAAAAAAASGPGGYGPENQGPSGPGGYGPGGPGSSAAAAAAAASGPGGYGPENQGPSGPGGYGPGGPGSSAAAAAAAASGPGGYGPENQGPSGPGGYGPGGPGSSAAAAAAAASGPGGYGPENQGPSGPGGYGPGGPGSSAAAAAAAASGPGGYGPENQGPSGPGGYGPGGPGSSAAAAAAAASGPGGYGPENQGPSGPGGYGPGGPGSSAAAAAAAASGPGGYGPENQGPSGPGGYGPGGPG", "values": [
      {"measurement": "Effect on the crystallization of metazachlor", "setting": "[2]; in the presence of aqueous potassium phosphate buffer", "value": "significant inhibitiory effect"}
    ]}
  ]
}
